How the values were obtained:
Assay type in all cases: in vivo
[1] = Carbonation effect of structural analogs in lime-flavored carbonated water, trained panel
Description: Selected structural analogs of sitosterol were tested for their ability to enhance the carbonation effect of a carbonated beverage. The analogs were used in amounts of 400 ppb and 200 ppb to 5 ppm. The sensory evaluation was carried by a trained panel that tasted each of the compounds in a lime-flavored carbonated water (Vintage seltzer water). The intensity of carbonation effect was rated and compared to other samples (Table 3)

[2] = Alcohol sensation intensity in alcohol solution at 6% ABV, panel, scale 0 to 10; conditions: 100 ppb in solution of 6% ABV; scale 0 to 10 (0=none, 4=medium, 7=high, 10=extremely high); control 4.38 ± 0.32
Description: Alcohol solution at 6% ABV was prepared by adding ethanol in water; and
A β-sitosterol solution (prepared in Example 1) was added to the alcohol solution at 6% ABV (prepared in Example 1) to yield a final concentration of 100 ppb. The alcohol sensation of the obtained sample was evaluated and compared by a panel with the alcohol solution at 6% ABV using an intensity scale of 0 to 10, where 0=none, 4=medium, 7=high and 10=extremely high. The intensity of alcohol sensation was rated. Mean (“Alcohol Intensity”) and standard error of the mean (“SE”, ±) were obtained (Table 1).

[3] = Carbonation sensation with varying amounts of β-sitosterol in carbonated water (7.2 g/L CO2)
Description: (§1) Carbonated water containing carbon dioxide at 6.0, 7.2 and 8.0 g/L, respectively, were also prepared.
A series of β-sitosterol solutions (prepared in Example 1) were added to carbonated water (7.2 g/L CO2) (prepared in Example 1) to yield final concentrations ranging from 0.1 ppt to 50 ppt. The carbonation sensation of the obtained samples containing different amounts of β-sitosterol was evaluated.

[4] = Alcohol sensation with varying amounts of alcohol, panel comparison with solutions at higher ABV
Description: (§2) Alcohol solutions with ABV ranging from 8.75% to […] were prepared by diluting CAPTAIN MORGAN® Original Spiced Rum (35% ABV) (Diageo North America Inc.) in varying amounts of water.
A β-sitosterol solution (prepared in Example 1) was added to alcohol solutions at 8.75% ABV, 17.5% ABV and 21.75% ABV (prepared in Example 1), respectively, to yield a final concentration of 25 ppb β-sitosterol. The alcohol sensation of the obtained samples was evaluated and compared by a panel with alcohol solutions at higher levels of ABV.

[5] = Carbonation sensation with varying amounts of carbonation; conditions: 2.5 ppt in carbonated water containing 6.0, 7.2 or 8.0 g/L CO2, all samples
Description: as §1
A β-sitosterol solution (prepared in Example 1) was added to carbonated water containing 6.0, 7.2 or 8.0 g/L CO2 (prepared in Example 1), respectively, to yield a final concentration of 2.5 ppt β-sitosterol. The carbonation sensation of the obtained samples was evaluated.

[6] = Flavor of β-sitosterol solutions in water; conditions: solutions 2.5 to 600 ppb in water
[7] = Alcohol impression in alcohol-free beer, panel comparison with alcohol solutions; conditions: 25 ppb in Brahma 0.0% alcohol-free beer
Description: Alcohol solutions at 1% ABV, 2% ABV, 2.5% ABV, 3% ABV and 5% ABV were prepared by adding varying amounts of ethanol in Brahma 0.0% alcohol-free beer (Anheuser-Busch InBev);
A β-sitosterol solution (prepared in Example 1) was added in Brahma 0.0% alcohol-free beer to yield a final concentration of 25 ppb. The alcohol impression of the obtained sample was evaluated and compared by a panel with alcohol solutions at 1% ABV, 2% ABV, 2.5% ABV, 3% ABV and 5% ABV (prepared in Example 1). β-Sitosterol (25 ppb) provided an equal level of alcohol impression as the alcohol solution at 2.5% ABV. Accordingly, β-Sitosterol provided alcohol sensation in alcohol-free beverages.

[8] = Carbonation effect intensity in carbonated water (7.2 g/L CO2), panel, scale 0 to 10; conditions: 2.5 ppt in solution of 7.2 g/L CO2; scale 0 to 10 (0=none, 4=medium, 7=high, 10=extremely high); control 4.88 ± 2.53
Description: as §1
A β-sitosterol solution (prepared in Example 1) was added to the carbonated water (7.2 g/L CO2) (prepared in Example 1) to yield a final concentration of 2.5 ppt. The carbonation effect of the obtained sample was evaluated and compared by a panel with the carbonated water using an intensity scale of 0 to 10, where 0=none, 4=medium, 7=high and 10=extremely high. The intensity of carbonation effect was rated. Mean (“Carbonation Intensity”) and standard error of the mean (“SE”, ±) were obtained (Table 2).

[9] = Alcohol sensation with varying amounts of β-sitosterol in alcohol solution at 17.5% ABV
Description: as §2
A series of β-sitosterol solutions (prepared in Example 1) were added to the alcohol solution at 17.5% ABV (prepared in Example 1) to yield final concentrations of β-sitosterol ranging from 3 to 500 ppb. The alcohol sensation of the obtained samples containing different amounts of β-sitosterol was evaluated.

[10] = 200 ppb-5 ppm in lime-flavored carbonated water (Vintage seltzer water)
[11] = 200 ppb in lime-flavored carbonated water (Vintage seltzer water)

## CC[C@H](CC[C@@H](C)[C@H]1CC[C@H]2[C@@H]3CC=C4C[C@@H](O[C@@H]5O[C@H](CO)[C@@H](O)[C@H](O)[C@H]5O)CC[C@]4(C)[C@H]3CC[C@]12C)C(C)C [β-Sitosterol β-D-glucoside, Daucosterol, β-Sitosterol β-D-glucoside]
[1]; [10]
  Carbonation Effect: 200 ppb-5 ppm: Slight tingly tip of tongue,

## CC[C@H](/C=C/[C@@H](C)[C@H]1CC[C@H]2[C@@H]3CC=C4C[C@@H](O)CC[C@]4(C)[C@H]3CC[C@]12C)C(C)C [Stigmasterol]
[1]; [10]
  Carbonation Effect: 200 pb-5 ppm: 5 ppm is a good level, adds more

## C[C@H](CCC(=O)NCC(=O)O)[C@H]1CC[C@H]2[C@@H]3[C@H](O)C[C@@H]4C[C@H](O)CC[C@]4(C)[C@H]3C[C@H](O)[C@]12C [Glycocholic acid hydrate]
[1]; [11]
  Carbonation Effect: 200 ppb: Longer lasting bubbles than control,

## C[C@H](CCC(=O)NCCS(=O)(=O)[O-])[C@H]1CC[C@H]2[C@@H]3[C@@H](O)C[C@@H]4C[C@H](O)CC[C@]4(C)[C@H]3CC[C@]12C.[Na+] [Sodium tauroursodeoxycholate]
[1]; [11]
  Carbonation Effect: 200 ppb: Very impactful, numbing, slightly more

## C[C@H](CCC(=O)O)[C@H]1CC[C@H]2[C@@H]3C[C@H](O)[C@@H]4C[C@H](O)CC[C@]4(C)[C@H]3CC[C@]12C [Hyodeoxycholic acid]
[1]; [11]
  Carbonation Effect: 200 ppb: Very foamy, fast bubbles upfront,

## C[C@H](CCC(=O)O)[C@H]1CC[C@H]2[C@@H]3[C@H](O)C[C@@H]4C[C@H](O)CC[C@]4(C)[C@H]3C[C@H](O)[C@]12C [Cholic acid]
[1]; [11]
  Carbonation Effect: 200 ppb: More tingly bubbles on tongue, linger,
[1]; 400 ppb in lime-flavored carbonated water (Vintage seltzer water)
  Carbonation Effect: 400 ppb: Very foamy, foam builds, lingering

## CC(C)CCC[C@@H](C)[C@H]1CC[C@H]2[C@@H]3CC=C4C[C@@H](O)CC[C@]4(C)[C@H]3CC[C@]12C [Cholesterol]
[1]; [10]
  Carbonation Effect: 200 ppb-5 ppm: Very similar to Deoxycholic

## CC(C)(O)[C@@H]1CC[C@](C)([C@H]2[C@@H](O)C[C@@]3(C)[C@@H]4C[C@H](O[C@@H]5O[C@H](CO)[C@@H](O)[C@H](O)[C@H]5O)[C@H]5C(C)(C)[C@@H](O[C@@H]6OC[C@@H](O)[C@H](O)[C@H]6O)CC[C@@]56C[C@@]46CC[C@]23C)O1 [Astragaloside IV]
[1]; [11]
  Carbonation Effect: 200 ppb: More impactful, long lasting, very

## C=C(C)[C@@H]1CC[C@]2(CO)CC[C@]3(C)[C@H](CC[C@@H]4[C@@]5(C)CC[C@H](O)C(C)(C)[C@@H]5CC[C@]43C)[C@@H]12 [Betulin]
[1]; [11]
  Carbonation Effect: 200 ppb: Long lasting popping, sour, works with

## C[C@@H]1CC[C@@]2(OC1)O[C@H]1C[C@H]3[C@@H]4CC=C5C[C@@H](O)CC[C@]5(C)[C@H]4CC[C@]3(C)[C@H]1[C@@H]2C [Diosgenin]
[1]; [10]
  Carbonation Effect: 200 ppb-5 ppm: Not much effect on carbonation,

## CC[C@H](CC[C@@H](C)[C@H]1CC[C@H]2[C@@H]3CC=C4C[C@@H](O)CC[C@]4(C)[C@H]3CC[C@]12C)C(C)C [β-sitosterol, (3S,8S,9S,10R,13R,14S,17R)-17-((1R,4R)-4-ethyl-1,5-dimethyl-hexyl)-10,13-dimethyl-2,3,4,7,8,9,10,11,12,13,14,15,16,17-tetradecahydro-1H-cyclopenta[a]phenanthren-3-ol]
[2]
  Mean Alcohol Intensity ± SE: 7.21 ± 0.27
[3]; 0.1 ppt in carbonated water (7.2 g/L CO2)
  Carbonation perception: slight increase in carbonation perception
[3]; 2.5 ppt in carbonated water (7.2 g/L CO2)
  Carbonation perception: clear increase in carbonation perception
[3]; 5 ppt or higher in carbonated water (7.2 g/L CO2)
  Enhancement of carbonation effect: reached a stable plateau
[4]; 25 ppb in alcohol solution at 8.75% ABV
  Alcohol sensation at the level of an alcohol solution at: 10 % ABV
[4]; 25 ppb in alcohol solution at 17.5% ABV
  Alcohol sensation at the level of an alcohol solution at: 22.5 % ABV
[4]; 25 ppb in alcohol solution at 21.75% ABV
  Alcohol sensation at the level of an alcohol solution at: 35 % ABV
[5]
  Carbonation sensation: provided enhancement of carbonation sensation
[6]
  Flavor of the compound itself: no noticeable flavor itself
[7]
  Alcohol impression, equal level as alcohol solution at: 2.5 % ABV
[8]
  Mean Carbonation Intensity ± SE: 7.19 ± 1.73
[9]; 3 ppb in alcohol solution at 17.5% ABV
  Alcohol sensation: slight but noticeable increase in alcohol sensation
[9]; 200 ppb in alcohol solution at 17.5% ABV
  Enhancement of alcohol sensation: reached a stable plateau
[9]; higher concentrations (above 3 ppb, up to 500 ppb) in alcohol solution at 17.5% ABV
  Alcohol sensation: clear increase in alcohol intensity

## C[C@H](CCC(=O)O)[C@H]1CC[C@H]2[C@@H]3[C@H](O)C[C@@H]4C[C@H](O)CC[C@]4(C)[C@H]3CC[C@]12C [Chenodeoxycholic acid]
[1]; [10]
  Carbonation Effect: 200 ppb-5 ppm: Adds more violent upfront
